Columns and labels:
[1] = target: T1, Muscarinic acetylcholine receptor M1 (Homo sapiens) (UniProt P11229); details: HEK293, at 10 µM
T1 sequence (whole entry): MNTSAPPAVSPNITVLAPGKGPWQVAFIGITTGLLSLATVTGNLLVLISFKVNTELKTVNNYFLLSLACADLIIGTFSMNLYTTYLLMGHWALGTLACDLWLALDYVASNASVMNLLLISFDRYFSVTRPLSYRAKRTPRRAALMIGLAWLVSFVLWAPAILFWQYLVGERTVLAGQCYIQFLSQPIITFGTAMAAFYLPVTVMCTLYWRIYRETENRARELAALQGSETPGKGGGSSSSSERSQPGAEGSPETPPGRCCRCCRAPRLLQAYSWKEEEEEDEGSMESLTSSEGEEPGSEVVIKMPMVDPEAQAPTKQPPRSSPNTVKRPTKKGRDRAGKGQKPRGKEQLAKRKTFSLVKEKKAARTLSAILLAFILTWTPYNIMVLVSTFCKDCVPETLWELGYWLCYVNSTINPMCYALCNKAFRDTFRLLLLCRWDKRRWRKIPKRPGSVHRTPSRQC

[2] = target: T1, Muscarinic acetylcholine receptor M1 (Homo sapiens); details: HEK293, at 10 µM; remark: listed apart in the source
[3] = target: T2, Muscarinic acetylcholine receptor M1 (Homo sapiens, UniProt P11229)
T2 sequence (P11229 whole entry): T1 sequence (whole entry)

[4] = target: T1, Muscarinic acetylcholine receptor M1 (Homo sapiens); test: Agonist activity at human m1 muscarinic acetylcholine receptor expressed in HEK293 cells assessed as relative ratio of phosphorylated ERK1/2 to ERK1/2 at 10 uM after 2 mins by Western blotting analysis relative to 100 uM acetylcholine response; format: cell-based
[5] = target: T1, Muscarinic acetylcholine receptor M1 (Homo sapiens); test: Agonist activity at human m1 muscarinic acetylcholine receptor expressed in HEK293 cells assessed as relative ratio of phosphorylated ERK1/2 to ERK1/2 at 1 uM after 2 mins by Western blotting analysis relative to 100 uM acetylcholine response; format: cell-based
SH-SY5Y [6] = test: Induction of sAPPalpha release in human SH-SY5Y cells assessed as fold changed at 1 uM after 1 hr by immunoblotting analysis relative to 100 uM acetylcholine response; format: functional
SH-SY5Y [7] = test: Induction of sAPPalpha release in human SH-SY5Y cells assessed as fold changed at 0.1 uM after 1 hr by immunoblotting analysis relative to 100 uM acetylcholine response; format: functional
[8] = target: T1, Muscarinic acetylcholine receptor M1 (Homo sapiens); test: Agonist activity at human m1 muscarinic acetylcholine receptor expressed in HEK293 cells assessed as relative ratio of phosphorylated ERK1/2 to ERK1/2 at 100 uM after 2 mins by Western blotting analysis relative to 100 uM acetylcholine response; format: cell-based
SH-SY5Y [9] = test: Induction of sAPPalpha release in human SH-SY5Y cells assessed as fold changed at 0.01 uM after 1 hr by immunoblotting analysis relative to 100 uM acetylcholine response; format: functional
SH-SY5Y [10] = test: Induction of sAPPalpha release in human SH-SY5Y cells after 1 hr by immunoblotting analysis; format: functional, cell-based
[11] = target: T1, Muscarinic acetylcholine receptor M1 (Homo sapiens); test: Agonist activity at human m1 muscarinic acetylcholine receptor expressed in HEK293 cells assessed as activation of ERK1/2 phosphorylation after 2 mins by Western blotting analysis; format: cell-based

| Compound | Efficacy [1] | inhibition [2] | EC50 [3] | further results |
| --- | --- | --- | --- | --- |
| CO/N=C/C1=CCCN(C)C1 [MILAMELINE] | 83% |  | 0.021 µM |  |
| O=C1CCCN1C1CC(CN2CCCC2)=NO1 (stereo not drawn) | 2.2% | 20.7% |  |  |
| CN1CCC=C(c2ccon2)C1 | 95.8% |  | 0.78 µM |  |
| O=C1CCCN1C1CC(CCN2CCCCC2)=NO1 (stereo not drawn) | 2.2% | 20.7% |  |  |
| CCOC1CC(C2=CCCN(C)C2)=NO1 (stereo not drawn) | 2.4% | 34% |  |  |
| CN1CCCC(C2=NOC(N3CCCC3=O)C2)C1 (stereo not drawn) | 2.2% | 20.7% |  |  |
| O=C1CCCN1CC#CCN1CCCC1 [OXOTREMORINE] | 108% |  | 0.0016 µM |  |
| O=C1CCCN1C1CC(CN2CCCCC2)=NO1 (stereo not drawn) | 2.2% | 20.7% |  |  |

Second part, led by results:

| Efficacy [1] | inhibition [2] | EC50 [3] | Compound | further results |
| --- | --- | --- | --- | --- |
| 1.7% | 12.3% |  | CN1CCC=C(C2=NOC(CO)C2)C1 (stereo not drawn) |  |
| 2.3% | 49.4% |  | CN1CCC=C(C2=NOC(Sc3ccccc3)C2)C1 (stereo not drawn) |  |
| 36.9% |  | 17.3 µM | CN1CCC=C(C2=NOC(O)C2)C1 (stereo not drawn) |  |
| 2.2% | 20.7% |  | O=C1CCCN1C1CC(CCN2CCCC2)=NO1 (stereo not drawn) |  |
| 61.3% |  | 5.68 µM | CSCC1CC(C2=CCCN(C)C2)=NO1 (stereo not drawn) |  |
| 99.5% |  | 0.031 µM | CN1CCC=C(C2=NOC(N3CCCC3=O)C2)C1 (stereo not drawn) | Ratio [4]: 1.7; Ratio [5]: 1.3; fold change (FC) (SH-SY5Y [6]): 3.4; fold change (FC) (SH-SY5Y [7]): 2.5; Ratio [8]: 1.8; fold change (FC) (SH-SY5Y [9]): 1.5; Activity (SH-SY5Y [10]): Dose-dependent effect; Activity [11]: Dose-dependent effect |
| 58.8% |  | 7.54 µM | CN1CCC=C(C2=NOC(C#N)C2)C1 (stereo not drawn) |  |

Source: ChEMBL document CHEMBL3399973, “Synthesis and biological evaluation of isoxazoline derivatives as potent M₁ muscarinic acetylcholine receptor agonists” (Bioorg Med Chem Lett, 2015)
